Test results from patent US9216968B2, “Heterocyclic derivative and pharmaceutical drug” (NIPPON SHINYAKU CO., LTD., priority 2011, dated 2015).
pIC50: −log10 of the molar value. Structures can show the parent of a compound that is named as a salt.

What was measured:
human mPGES-1 = human mPGES-1 (Homo sapiens (Human), UniProt O14684); assay: mPGES-1 inhibiting activity (microsome fractions, PGE2 by HTRF); assay type: biochemical; settings: microsomes from CHO-K1 cells transfected with human mPGES-1; PGH2 1 μM, 4° C., 60 seconds; read-out: mPGES-1 Inhibition IC50
Outline: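 PGE2 formation read by HTRF after 60 s at 4 °C with 1 μM PGH2 substrate, following 20 min compound preincubation (1% DMSO) with human mPGES-1 microsomes from transfected CHO-K1 cells. Buffer: potassium phosphate, reduced glutathione, pH 7.4; IC50 from activity relative to enzyme-free blank.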

A549 cells = assay: Inhibition of PGE2 production in A549 cell (IL-1β stimulated); assay type: cell-based, human; settings: Homo sapiens, A549, 24 h, IL-1β 5 ng/well, PGE2 in culture medium
Outline: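 A549 cells preincubated 60 min with compound in RPMI/3% FBS (final DMSO 0.10), then stimulated with IL-1β (5 ng/well) for 24 h at 37 °C. PGE2 measured by HTRF and PGF2α by EIA in medium; IC50 from inhibition relative to stimulated minus unstimulated production.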

Sequence of human mPGES-1 (O14684 whole entry): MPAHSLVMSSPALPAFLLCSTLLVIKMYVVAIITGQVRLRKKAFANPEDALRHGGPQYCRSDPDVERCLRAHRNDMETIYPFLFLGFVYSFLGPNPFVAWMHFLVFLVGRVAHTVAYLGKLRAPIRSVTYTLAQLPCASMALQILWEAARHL

SMILES	pIC50 (human mPGES-1)	pIC50 (A549 cells)
COCc1nc2c(C(=O)Nc3cccc(Cl)c3C)cc(NC(=O)c3c(F)ccc(F)c3Cl)cc2[nH]1 [Example 101, 6-{[(2-Chloro-3,6-difluorophenyl)carbonyl]amino}-N-(3-chloro-2-methylphenyl)-2-(methoxymethyl)-1H-benzimidazole-4-carboxamide hydrochloride]	7.11	6.93
COCc1nc2c(C(=O)Nc3cccc(Cl)c3C)cc(NC(=O)c3c(Cl)cccc3Br)cc2[nH]1 [Example 102, 6-{[(2-Bromo-6-chlorophenyl)carbonyl]amino}-N-(3-chloro-2-methylphenyl)-2-(methoxymethyl)-1H-benzimidazole-4-carboxamide hydrochloride]	8.80	7.31
COCc1nc2c(C(=O)Nc3cccc(Cl)c3C)cc(NC(=O)c3c(F)cccc3Br)cc2[nH]1 [Example 103, 6-{[(2-Bromo-6-fluorophenyl)carbonyl]amino}-N-(3-chloro-2-methylphenyl)-2-(methoxymethyl)-1H-benzimidazole-4-carboxamide hydrochloride]	8.55	7.22
COCc1nc2c(C(=O)Nc3cccc(Cl)c3C)cc(NC(=O)c3cc(C)ccc3C(F)(F)F)cc2[nH]1 [Example 109, N-(3-Chloro-2-methylphenyl)-2-(methoxymethyl)-6-({[5-methyl-2-(trifluoromethyl)phenyl]carbonyl}amino)-1H-benzimidazole-4-carboxamide hydrochloride]	8.11	8.06
COCc1nc2c(C(=O)Nc3cccc(Cl)c3C)cc(NC(=O)c3cc(C(F)(F)F)ccc3C(F)(F)F)cc2[nH]1 [Example 110, 6-({[2,5-Bis(trifluoromethyl)phenyl]carbonyl}amino)-N-(3-chloro-2-methylphenyl)-2-(methoxymethyl)-1H-benzimidazole-4-carboxamide hydrochloride]	8.59	7.45
COCc1nc2c(C(=O)Nc3cccc(Cl)c3C)cc(NC(=O)c3cc(F)ccc3C(F)(F)F)cc2[nH]1 [Example 112, N-(3-Chloro-2-methylphenyl)-6-({[5-fluoro-2-(trifluoromethyl)phenyl]carbonyl}amino)-2-(methoxymethyl)-1H-benzimidazole-4-carboxamide hydrochloride]	8.59	6.73
COCc1nc2c(C(=O)Nc3cccc(Cl)c3C)cc(NC(=O)c3c(Cl)cccc3C(F)(F)F)cc2[nH]1 [Example 113, N-(3-Chloro-2-methylphenyl)-6-({[2-chloro-6-(trifluoromethyl)phenyl]carbonyl}amino)-2-(methoxymethyl)-1H-benzimidazole-4-carboxamide hydrochloride]	≥ 10.00	8.92
COCc1nc2c(C(=O)Nc3cccc(Cl)c3C)cc(NC(=O)c3cc(CCCOC(C)(C)C)ccc3Cl)cc2[nH]1 [Example 118, 6-({[5-(3-tert-Butoxypropyl)-2-chlorophenyl]carbonyl}amino)-N-(3-chloro-2-methylphenyl)-2-(methoxymethyl)-1H-benzimidazole-4-carboxamide hydrochloride]	8.14	8.28
Cc1c(Cl)cccc1NC(=O)c1cc(NC(=O)c2ccccc2C(F)(F)F)cc2[nH]c(C3CCCC3)nc12 [Example 124, N-(3-Chloro-2-methylphenyl)-2-cyclopentyl-6-({[2-(trifluoromethyl)phenyl]carbonyl}amino)-1H-benzimidazole-4-carboxamide hydrochloride]	8.66	8.49
Cc1c(Cl)cccc1NC(=O)c1cc(NC(=O)c2cc(Cl)ccc2Cl)cc2[nH]c(C3CCCC3)nc12 [Example 125, N-(3-Chloro-2-methylphenyl)-2-cyclopentyl-6-{[(2,5-dichlorophenyl)carbonyl]amino}-1H-benzimidazole-4-carboxamide hydrochloride]	7.59	7.24
Cc1c(Cl)cccc1NC(=O)c1cc(NC(=O)c2c(F)cccc2Cl)cc2[nH]c(C3CCCC3)nc12 [Example 126, 6-{[(2-Chloro-6-fluorophenyl)carbonyl]amino}-N-(3-chloro-2-methylphenyl)-2-cyclopentyl-1H-benzimidazole-4-carboxamide hydrochloride]	8.25	7.88
Cc1c(Cl)cccc1NC(=O)c1cc(NC(=O)c2c(F)cccc2Cl)cc2[nH]c([C@H]3CCCO3)nc12 [Example 127, 6-{[(2-Chloro-6-fluorophenyl)carbonyl]amino}-N-(3-chloro-2-methylphenyl)-2-[(2R)-tetrahydrofuran-2-yl]-1H-benzimidazole-4-carboxamide hydrochloride]	8.20	6.84

Other lines, results leading:

pIC50 (human mPGES-1)	pIC50 (A549 cells)	SMILES
7.48	6.91	COCc1nc2c(C(=O)Nc3cccc(Cl)c3C)cc(NC(=O)c3cccc(F)c3Cl)cc2[nH]1 [Example 100, 6-{[(2-Chloro-3-fluorophenyl)carbonyl]amino}-N-(3-chloro-2-methylphenyl)-2-(methoxymethyl)-1H-benzimidazole-4-carboxamide hydrochloride]
8.54	7.15	COCc1nc2c(C(=O)Nc3cccc(Cl)c3C)cc(NC(=O)c3c(C)cccc3Cl)cc2[nH]1 [Example 104, N-(3-Chloro-2-methylphenyl)-6-{[(2-chloro-6-methylphenyl)carbonyl]amino}-2-(methoxymethyl)-1H-benzimidazole-4-carboxamide hydrochloride]
8.05	6.49	COCc1nc2c(C(=O)Nc3cccc(Cl)c3C)cc(NC(=O)c3ccc(C)cc3Cl)cc2[nH]1 [Example 105, N-(3-Chloro-2-methylphenyl)-6-{[(2-chloro-4-methylphenyl)carbonyl]amino}-2-(methoxymethyl)-1H-benzimidazole-4-carboxamide hydrochloride]
8.35	7.20	COCc1nc2c(C(=O)Nc3cccc(Cl)c3C)cc(NC(=O)c3cc(Br)ccc3Cl)cc2[nH]1 [Example 106, 6-{[(5-Bromo-2-chlorophenyl)carbonyl]amino}-N-(3-chloro-2-methylphenyl)-2-(methoxymethyl)-1H-benzimidazole-4-carboxamide hydrochloride]
8.82	7.38	COCc1nc2c(C(=O)Nc3cccc(Cl)c3C)cc(NC(=O)c3cc(Cl)ccc3Br)cc2[nH]1 [Example 107, 6-{[(2-Bromo-5-chlorophenyl)carbonyl]amino}-N-(3-chloro-2-methylphenyl)-2-(methoxymethyl)-1H-benzimidazole-4-carboxamide hydrochloride]
7.94	7.06	COCc1nc2c(C(=O)Nc3cccc(Cl)c3C)cc(NC(=O)c3cc(C)ccc3Cl)cc2[nH]1 [Example 108, N-(3-Chloro-2-methylphenyl)-6-{[(2-chloro-5-methylphenyl)carbonyl]amino}-2-(methoxymethyl)-1H-benzimidazole-4-carboxamide hydrochloride]
8.46	8.06	COCc1nc2c(C(=O)Nc3cccc(Cl)c3C)cc(NC(=O)c3cc(OCCOC(C)C)ccc3Cl)cc2[nH]1 [Example 114, N-(3-Chloro-2-methylphenyl)-6-[({2-chloro-5-[2-(propan-2-yloxy)ethoxy]phenyl}carbonyl)amino]-2-(methoxymethyl)-1H-benzimidazole-4-carboxamide hydrochloride]
7.94	7.43	CCOCCOc1ccc(Cl)c(C(=O)Nc2cc(C(=O)Nc3cccc(Cl)c3C)c3nc(COC)[nH]c3c2)c1 [Example 115, 6-({[2-Chloro-5-(2-ethoxyethoxy)phenyl]carbonyl}amino)-N-(3-chloro-2-methylphenyl)-2-(methoxymethyl)-1H-benzimidazole-4-carboxamide hydrochloride]
8.01	6.60	COCCCc1ccc(Cl)c(C(=O)Nc2cc(C(=O)Nc3cccc(Cl)c3C)c3nc(COC)[nH]c3c2)c1 [Example 116, 6-({[2-Chloro-5-(3-methoxypropyl)phenyl]carbonyl}amino)-N-(3-chloro-2-methylphenyl)-2-(methoxymethyl)-1H-benzimidazole-4-carboxamide hydrochloride]
7.24	6.29	CCOCc1ccc(Cl)c(C(=O)Nc2cc(C(=O)Nc3cccc(Cl)c3C)c3nc(COC)[nH]c3c2)c1 [Example 120, 6-({[2-Chloro-5-(ethoxymethyl)phenyl]carbonyl}amino)-N-(3-chloro-2-methylphenyl)-2-(methoxymethyl)-1H-benzimidazole-4-carboxamide]
8.20	6.36	CCOCCOCc1ccc(Cl)c(C(=O)Nc2cc(C(=O)Nc3cccc(Cl)c3C)c3nc(COC)[nH]c3c2)c1 [Example 121, 6-[({2-Chloro-5-[(2-ethoxyethoxy)methyl]phenyl}carbonyl)amino]-N-(3-chloro-2-methylphenyl)-2-(methoxymethyl)-1H-benzimidazole-4-carboxamide hydrochloride]
8.01	< 6.00	COCc1nc2c(C(=O)Nc3cccc(Cl)c3C)cc(NC(=O)c3cc(CCC4CC4)ccc3Cl)cc2[nH]1 [Example 122, 6-({[2-Chloro-5-(2-cyclopropylethyl)phenyl]carbonyl}amino)-N-(3-chloro-2-methylphenyl)-2-(methoxymethyl)-1H-benzimidazole-4-carboxamide]
8.06	7.00	COCc1nc2c(C(=O)Nc3cccc(Cl)c3C)cc(NC(=O)c3cc(CCc4ccccc4)ccc3Cl)cc2[nH]1 [Example 123, N-(3-Chloro-2-methylphenyl)-6-({[2-chloro-5-(2-phenylethyl)phenyl]carbonyl}amino)-2-(methoxymethyl)-1H-benzimidazole-4-carboxamide hydrochloride]
